Reference: ChEMBL document CHEMBL4334475, “Aphidicolin Chemistry of the Deep-Sea-Derived Fungus Botryotinia fuckeliana MCCC 3A00494” (J Nat Prod, 2019)
The source made the active and inactive calls. No cut-off for these calls is given here.

Assays:
T-24 [1] = assay: Induction of apoptosis in human T24 cells assessed as increase in PARP cleavage at 11 to 22 uM by Western blot analysis; type: functional, cell-based
HL-60 [2] = assay: Potency index, ratio of aphidicolin IC50 to compound IC50 for antiproliferative activity against human HL60 cells; type: functional
T-24 [3] = assay: Induction of DNA damage in human T24 cells assessed as increase in gammaH2AX expression at 11 to 22 uM by Western blot analysis; type: functional, cell-based
HL-60 [4] = assay: Induction of apoptosis in human HL60 cells assessed as increase in PARP cleavage at 11 to 22 uM by Western blot analysis; type: functional, cell-based
HL-60 [5] = assay: Induction of DNA damage in human HL60 cells assessed as increase in gammaH2AX expression at 11 to 22 uM by Western blot analysis; type: functional, cell-based
HL-60 [6] = assay: Antiproliferative activity against human HL60 cells assessed as reduction in cell viability after 48 hrs by MTT assay; type: functional, cell-based; conditions: HL-60, 48 h
T-24 [7] = assay: Antiproliferative activity against human T24 cells assessed as reduction in cell viability after 48 hrs by MTT assay; type: functional, cell-based; conditions: T-24, 48 h

Row | SMILES | Activity (T-24 [1]) | Ratio IC50 (HL-60 [2]) | Activity (T-24 [3]) | Activity (HL-60 [4]) | Activity (HL-60 [5]) | IC50 (HL-60 [6]) | IC50 (T-24 [7])
1 | C[C@@]1(CO)[C@H](O)CC[C@@]2(C)[C@H]1C(=O)C[C@H]1C[C@@H]3C[C@@]12CC[C@]3(O)CO | Active | 4 | Active | Active | Active | 6.1 µM | 2.5 µM
2 | C[C@@]1(CO)[C@H](O)CC[C@@]2(C)[C@H]1CC[C@H]1C[C@@H]3C[C@@]12CC[C@]3(O)CO [APHIDICOLIN] |  |  |  |  |  | 24.4 µM | 
